Measured values reported in patent publication US20240182526A1, “COMPOSITIONS AND METHODS FOR MODULTING INFLAMMATORY AND DEGENERATIVE DISORDER” (University of Southern California, priority 2021, published 2024).
“Also recorded” adds a separate entry of the source.

Legend:
c-MYC = test: Western blot of c-MYC in pig articular chondrocytes; type: cell-based
STAT3 = test: Western blot of STAT3 signaling in osteoarthritic chondrocytes; type: cell-based, human; settings: 4 and 24 hours
Method: (§1) For standard western blot, treated and non-treated cells were lysed in RIPA Lysis and Extraction Buffer (Pierce, Rockford, IL) containing protease inhibitors (Pierce) followed by sonication with a 15-second pulse at a power output of 2 using the VirSonic 100 (SP Industries Company, Warminster, PA). Protein concentrations were determined by BCA protein assay (Pierce). Proteins were resolved with SDS-PAGE utilizing 4-15% Mini-PROTEAN TGX Precast Gels and transferred to Trans-Blot Turbo Transfer Packs with a 0.2-μm pore-size nitrocellulose membrane. The SDS-PAGE running buffer, 4-15% Mini-PROTEAN TGX Precast Gels, Trans-Blot Turbo Transfer Packs with a 0.2-μm pore-size nitrocellulose membrane was purchased from Biorad (Hercules, CA). Nitrocellulose membranes were blocked in 5% nonfat milk in 0.05% (v/v) Tween 20 (PBST) (Corning, Manassas, VA). Membranes were then incubated with primary antibodies p-gp130 Y814 (Evseenko lab, AbClonal), p-AKT (cat #4060, Cell Signaling), p-ERK 1/2 (cat #9106, Cell Signaling), p-Y416-SRC (cat #1246F, Novus Biologicals), p-gp130 (cat #1453R, Bioss USA) and p-NFκBp65 (cat #8242, Cell Signaling), and/or YAP1 (cat #4912, Cell Signaling). Histone H3 (cat #9515, Cell Signaling) was used as loading control. […] Quantification of blots was performed using ImageJ 1.44 followed by Prism9 for analysis.

[1] = test system: pro-inflammatory signaling in osteoarthritic chondrocytes; test: Western blot of pro-inflammatory signaling proteins in osteoarthritic chondrocytes; type: cell-based, human; settings: 4 and 24 hours
Method: as §1

pSTAT3 = test: Western blot of pSTAT3 in LIF-treated pig articular chondrocytes; type: cell-based; settings: 4 and 24 hours
Method: as §1, with “VA).” for “VA). Membranes were then incubated with primary antibodies p-gp130 Y814 (Evseenko lab, AbClonal), p-AKT (cat #4060, Cell Signaling), p-ERK 1/2 (cat #9106, Cell Signaling), p-Y416-SRC (cat #1246F, Novus Biologicals), p-gp130 (cat #1453R, Bioss USA) and p-NFκBp65 (cat #8242, Cell Signaling), and/or YAP1 (cat #4912, Cell Signaling). Histone H3 (cat #9515, Cell Signaling) was used as loading control.”
Experiments were performed to determine whether R805 is inclined to shift the signaling outputs downstream of gp130 promoting differential regulation similar to genetic ablation of Y814. As a readout, protein levels of phosphorylated SRC, MAPK (ERK 1/2) and NF-κB were measured in response to OSM while STAT3 and YAP1 levels were evaluated in response to LIF.

[2] = test system: mouse skin excisional wound; test: Wound-induced hair neogenesis (WIHN) assay, skin excisional wound; type: in vivo
Method: Single-cell sequencing using 10× Genomics. Single cell samples were prepared using Next GEM Single Cell 5′ v2 (dual index) and Chip Kit (10× Genomics) according to the manufacturer's protocol. Briefly samples were FACS sorted using DAPI to select live cells followed by resuspension in 0.04% BSA-PBS. Nearly 1200 cells/μl were added to each well of the chip with a target cell recovery estimate of 10000 cells. Thereafter Gel bead-in Emulsions (GEMs) were generated using GemCode Single-Cell Instrument. GEMs were reverse transcribed, droplets were broken and single stranded cDNA was isolated. cDNAs were cleaned up with DynaBeads and amplified. Finally, cDNAs were ligated with adapters, post-ligation products were amplified, cleaned-up with SPRIselect and purified libraries were sequenced on Novaseq.
Wound-induced hair neogenesis assay. The WHIN assay was previously described. Briefly, a 1.5×1.5 cm square full thickness wound was excised on the posterior dorsum of 6-week-oldf mice, and observed for hair neogenesis and wound histology. Mice were anesthetized using isofluorane, full thickness skin was excised, and analgesic Buprenorphine SR (0.5 mg/kg) was given by intraperitoneal injection (IP) at the beginning of the procedure. Additional DietGel Boost (ClearH2O) was placed on the bottom of the cage during the first week post-operation. For R805-treatment, R805 (10 μM or 20 μM) was applied topically to the wound of WT mice.
Alkaline phosphatase (ALP) stain. To detect newly forming dermal papillae, alkaline phosphatase staining was performed as previously reported. Briefly, full thickness wounds were excised and epidermis separated from the dermis using 20 mM EDTA. The dermis was fixed in acetone overnight at 4° C., and washed in PBS several times. The dermis was pre-incubated in ALP buffer (0.1 M Tris-HCl, 0.1 M NaCl, 5 mM MgCl2 and 0.1% Tween-20) for 30 min, incubated with BCIP/NBT Color Development Substrate (Promega, Madison, WI, USA) in ALP buffer at 37° C. until color development. The reaction was stopped by washing with pH 8.0 Tris-EDTA and the tissue stored in PBS with sodium azide. 5 wounds were calculated for each strain of mice.
Hair fiber length quantification. To quantify regenerated hair fiber length, hair fibers from respective wounds were plucked, aligned and photographed next to a ruler under the dissecting microscope. The length of the hair fibers was measured and analyzed using ImageJ. 3-4 hairs were randomly plucked from each wound and analyzed.

[3] = 90-day pharmacokinetic study after intra-articular injection in Beagles; type: in vivo; settings: Beagle
Method: Pharmacokinetic assessment of R805. Pharmacokinetics were conducted in a canine model for over 90 days. Purpose-bred beagles with intact stifles were injected intra-articularly with 500 μL of physiological saline containing 0.25% carboxymethyl cellulose (CMC) and either 1 μg or 100 ng of […] (n=4 each). Synovial fluid and plasma were collected at d0, d3, d7, d14, d21, d31, d60 and d90 and analyzed by LC-MS/MS. Doses of 10 μg, 1 μg and 0.1 μg of R805 were utilized for the main experiment.

[4] = topical on WT mouse wound, PWD 21

## Cc1ccc(-c2csc(NC(=O)c3ccccn3)n2)cc1 [Peptide R805]
c-MYC
  protein levels of c-MYC (MYC signaling): does not activate MYC signaling
STAT3
  STAT3 signaling in diseased joint cells: minimally affected STAT3 signaling in a diseased joint
[1]
  pro-inflammatory signaling in diseased tissue: markedly suppressed; also recorded: prevents pro-inflammatory signaling in diseased tissue
pSTAT3
  pSTAT3 downstream of LIF: minimal inhibitory effect; also recorded: does not affect pro-regenerative signaling downstream of gp130
[2]; PWD 14
  scRNA-seq macrophage clusters of skin wounds: higher expression of genes characteristic of pro-regenerative/anti-inflammatory macrophages
[2]; topical on WT mouse wound
  hair fiber length and number of hair follicles: increase of hair fiber length and number of hair follicles
[2]; [4]
  hair follicle neogenesis and dermal regeneration: significant hair follicle neogenesis and dermal regeneration; also recorded: enhanced wound-induced hair neogenesis
  wound histology (thickness, contraction, collagen deposition): thicker, less contracted and shows less collagen deposition
[3]; 1 μg intra-articular injection
  time that IC50 concentrations of R805 were maintained in the joint: 3 weeks
[3]; intra-articular injection, 90-day study
  detection in systemic circulation: never detected in systemic circulation; also recorded: not detected in systemic circulation
